The values that follow come from patent US20050214886A1, “TNF modulation” (YEDA RESEARCH AND DEVELOPMENT CO. LTD., priority 1995, published 2005).

The test system of this assay is 26 kDa TNF molecules in HeLa-M9 cells. The assay is described as follows: [32P] metabolic labeling and immunoprecipitation: phosphorylation of 26 kDa TNF. The class given is cell-based, human. As to conditions: preliminary experiments, data not shown. The text has this:
The intracellular region is the only part of the TNF molecule accessible for phosphorylation by cytoplasmic protein kinases. The specific kinases involved in TNF phosphorylation are not known, nor is it known if, and in what way, the activity of these kinases is subject to modulation by agents that affect TNF activity. Evidently, the phosphorylation observed in the HeLa-M9 cells, in which TNF was synthesized without stimulation, reflects the function of kinase(s) that constitutively act in these cells. On the other hand, the phosphorylation observed in the LPS-stimulated MM6 cells could involve effects of LPS activated protein kinases (Liu et al., 1994; Han et al., 1995). The serine at position −50 seems to be a suitable substrate for phosphorylation by protein kinase C (Kennelly and Krebs, 1991).
Labeling of cells with [^35S]Met or [^32P) orthophosphate was performed by incubation in Met-free or phosphate-free medium, supplemented with 5 or 10% FCS, that had been dialyzed against either PBS or 0.9% NaCl, respectively. […]
Immunoprecipitation was performed using sheep anti-TNF antiserum or, as a control, non-immune sheep serum, at a dilution of 1:200. […] The immunoprecipitated proteins were analyzed by SDS-PAGE under reducing conditions (12% acrylamide). […]

Take `CCCCCCCCCCCCCC(=O)O[C@@H]1[C@@H](C)[C@@]2(O)[C@@H](C=C(CO)C[C@]3(O)C(=O)C(C)=C[C@@H]23)[C@@H]2C(C)(C)[C@]12OC(C)=O` [4β-phorbol-12-myristate-13-acetate]: the “increase of phosphorylation of the 26 kDa TNF molecules” value is “did not observe any increase of phosphorylation”.
